Experimental data from US8138392B2, “Disease resistant plants” (The Samuel Roberts Noble Foundation, Inc., priority 2008, dated 2012).
“Also recorded” adds a separate entry of the source.

Tested on: P. omnivora
Test: in vitro fungal growth inhibition assay
Type: cell-based, Phymatotrichopsis omnivora

O=c1cc(-c2ccc(O)cc2)oc2cc(O)ccc12 [7,4-dihydroxyflavone]
fungal growth inhibition in in vitro assays (at 0.1 mM): inhibited fungal growth
inhibitory activity towards P. omnivora in in vitro assays (no concentration stated): very high inhibitory activity; also recorded: inhibitory to P. omnivora
